Results taken from paper PMC9596378, “Discovery and molecular basis of subtype-selective cyclophilin inhibitors” (Nature Chemical Biology, 2022).
Where “and” joins values, the source holds several entries; their conditions need not be identical. Equal values may be shown once. Read-outs that look alike come from different tables or passages of the source.

Legend:
[1] = system: isolated mouse liver mitochondria; test: Mitochondrial calcium retention capacity assay (mPTP opening); conditions: for calcium retention capacity before mPTP opening (in words): 2 µM CsA, 10 µM B52-Cy5/*B52-Cy5, 20 µM B53-Cy5/*B53-Cy5, vs DMSO; for Normalized # Pulses (calcium retention capacity ratio to DMSO): 60 µM CaCl2 pulses, individual mitochondrial preparations
Description: All procedures used in animal studies were approved by the Institutional Animal Care and Use Committee at Massachusetts General Hospital. Female C57BL/6J mice (Jackson Labs) age 10–12 weeks were anesthetized by isoflurane. The liver from one mouse was rinsed in ice-cold PBS, minced in ice-cold isolation buffer containing 0.28 M sucrose, 10 mM Hepes-KOH pH 7.2, 0.2 mM EDTA and 1% (w/v) bovine serum albumin, gently homogenized with four strokes of a tight-fitting Teflon pestle at 1,000 r.p.m., and then centrifuged for 10 min at 600g at 4 °C. The supernatant was recovered and centrifuged for 10 min at 8,000g at 4 °C. The loose outer buffy coat was rinsed off and the pellet resuspended gently in isolation buffer and the spins were repeated. […] The suspension was kept on ice and all assays performed within 4–6 h following isolation. Quality control was done with every preparation by adding 250 mcg mitochondria to 500 µL assay buffer containing 137 mM KCl, 10 mM Hepes-KOH pH 7.2, 2.5 mM MgCl2, 5 mM each of glutamate and malate, and 3 mM KH2PO4. Sequential 150 µM ADP pulses were then delivered. Only preparations with respiratory control ratio >6 (as assessed by the ratio of ADP-coupled state 3 respiration to state 4 respiration) were used for further experiments. Measurements were made in a custom-built spectrometer.
Two hundred and fifty micrograms of mouse liver mitochondria isolated as above were added to 500 µL assay buffer containing 125 mM KCl, 20 mM Hepes-KOH pH 7.2, 1 mM MgCl2, 5 mM each of glutamate and malate, and 3 mM KH2PO4. 0.5 µM Calcium Green 5N (Molecular Probes) was included to monitor extramitochondrial free Ca^2+. Fluorescence was continuously monitored in the custom-built fluorimeter described above, with excitation 470 nm and emission 520–560 nm. […] The calcium retention capacity ratio was obtained by normalizing the number of Ca^2+ pulses that could be taken up in a given condition by that taken up under DMSO control conditions, as previously described.

HeLa cells = test: Fluorescence microscopy of Cy5-conjugated compounds; format: cell-based, human
Description: Cells were seeded into 96-well, black, clear-bottom, TC-treated plates, in DMEM supplemented with 10% FBS 24 h prior at a density where wells were ~80% confluent at the time of the experiment. Medium was removed and cells were then stained with 50 µL mixture containing Cy5-labeled compound (6 µM) in Kreb’s ringer solution HEPES buffered pH 7.2 (KRB), for 1 h at 37 °C. Then, 50 µL Hoechst 33342 (8 µM) and Mitotracker Green FM (0.1 µM) in KRB was added directly to wells containing cells and incubated for 15 min at 37 °C. Medium was removed and cells were washed twice with 100 µL KRB. Cells were then kept adherent to the wells in 100 µL KRB for imaging. Fluorescence microscopy was conducted on an Opera Phenix Plus High-Content Screening System, using Alexa 488, Alexa 647, and Hoescht 33342 channels. Images were analyzed using Harmony v.4.9.

CypB E121S = target: T1, CypB E121S (Homo sapiens, UniProt P23284, E121S); test: biochemical
T1 construct: Lane 14- SNA-CypB E121S (34-216);; His6 tag with TEV site (2BT vector); SNA remnant stays on the N-terminus (N, cleaved yes); made in house; host or cells: E. coli BL21(DE3)
T1 sequence (P23284 34-216 E121S): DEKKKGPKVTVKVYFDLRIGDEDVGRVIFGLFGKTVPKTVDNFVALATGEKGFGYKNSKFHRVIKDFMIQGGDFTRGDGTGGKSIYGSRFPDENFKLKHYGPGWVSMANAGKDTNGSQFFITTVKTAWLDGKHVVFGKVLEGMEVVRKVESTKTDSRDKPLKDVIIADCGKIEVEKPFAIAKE
How it was run: (§1)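 Recombinant cyclophilin (5 nM final) in 25 mM HEPES pH 7.3, 100 mM NaCl, 0.01% Triton X-100 was preincubated with compound at 2–3 °C. It was then coupled with 25 µM α-chymotrypsin and 5 µM Suc-AAPF-AMC (LiCl/TFE), and AMC fluorescence was followed for 330 s.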

CypD K118E/R124A = target: T2, CypD K118E/R124A (Homo sapiens, UniProt P30405, K118E/R124A); test: Chymotrypsin coupled prolyl-isomerase assay; format: biochemical
T2 construct: made in house; host or cells: E. coli BL21(DE3)
T2 sequence (P30405 45-207 K118E/R124A): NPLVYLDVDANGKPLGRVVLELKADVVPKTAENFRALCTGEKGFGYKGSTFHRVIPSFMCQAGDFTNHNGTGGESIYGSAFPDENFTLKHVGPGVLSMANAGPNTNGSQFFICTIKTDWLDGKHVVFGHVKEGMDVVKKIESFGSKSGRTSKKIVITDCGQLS
How it was run: as §1

CypE = target: T3, CypE (Homo sapiens, UniProt Q9UNP9); test: Competition anisotropy binding assay with A26-Fl
T3 construct: PPIE (UniProtKB Entry Q9UNP9: residues 131–301); host or cells: E. coli BL21(DE3)
T3 sequence (Q9UNP9 131-301): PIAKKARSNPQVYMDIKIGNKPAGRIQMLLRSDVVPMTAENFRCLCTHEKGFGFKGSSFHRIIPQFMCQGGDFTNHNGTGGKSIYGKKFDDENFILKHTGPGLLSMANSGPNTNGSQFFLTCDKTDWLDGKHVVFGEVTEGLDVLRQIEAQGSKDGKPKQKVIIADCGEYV
Description: Adapted from previous work[52], cyclophilin in assay buffer (25 mM HEPES pH 8.0, 100 mM NaCl, 0.01% Triton X-100) at a pre-determined concentration from Supplementary Table 6 was incubated with 0.5 nM A26-Fl for 10 min at room temperature in a flat-bottom black untreated 96-well plate (Corning). Competitor macrocycle was then added to each well and incubated for 24 h. Final assay volume was 100 µL with 0.25% DMSO. Fluorescence anisotropy was then measured using a Tecan Spark plate reader using 492 nm/523 nm excitation/emission settings.

CypE K218A = target: T4, CypE K218A (Homo sapiens, UniProt Q9UNP9, K218A); test: Chymotrypsin coupled prolyl-isomerase assay; format: biochemical
T4 construct: Lane 6- GS-CypE K218A (131-301);; His6 tag with thrombin site (pET28a LIC); GS remnant stays on the N-terminus (N, cleaved yes); host or cells: E. coli BL21(DE3)
T4 sequence (Q9UNP9 131-301 K218A): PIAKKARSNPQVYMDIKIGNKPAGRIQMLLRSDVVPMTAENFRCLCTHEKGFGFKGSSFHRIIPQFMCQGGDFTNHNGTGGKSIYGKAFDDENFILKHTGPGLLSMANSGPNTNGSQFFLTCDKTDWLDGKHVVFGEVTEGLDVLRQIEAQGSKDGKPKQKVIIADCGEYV
How it was run: as §1

[2] = mutant CypB E121S, read-out: Mutant Cyclophilin Prolyl Isomerase Inhibition IC50 Values, CypB E121S
[3] = prolyl-isomerase inhibition, read-out: IC50 CypB E121S

Compound: C[N+]1=C(C=CC=CC=C2N(CCCCCC(=O)NCCNC(=O)C3CCNC(=O)C=CC(=O)N4CCCC(Cc5ccccc5)(C4)C(=O)NC(Cc4ccc(-c5ccc(CC(C(=O)O)C(=O)O)cc5)cc4)C(=O)NCc4ccccc4CC(=O)N3)c3ccccc3C2(C)C)C(C)(C)c2ccccc21 (stereo not shown) [*B52-Cy5]
- calcium retention capacity before mPTP opening (in words) [1]: do not influence calcium retention capacity
- Normalized # Pulses (calcium retention capacity ratio to DMSO) ([1]; 10 µM compound): 1
- plasma membrane permeability / mitochondrial localization (in words) (HeLa cells): poor

Compound: C[N+]1=C(C=CC=CC=C2N(CCCCCC(=O)NCCNC(=O)C3CCNC(=O)C=CC(=O)N4CCCC(Cc5ccccc5)(C4)C(=O)NC(Cc4ccc(-c5ccc(C(CC(=O)O)CC(=O)O)cc5)cc4)C(=O)NCc4ccccc4CC(=O)N3)c3ccccc3C2(C)C)C(C)(C)c2ccccc21 (stereo not shown) [*B53-Cy5]
- calcium retention capacity before mPTP opening (in words) [1]: do not influence calcium retention capacity
- Normalized # Pulses (calcium retention capacity ratio to DMSO) ([1]; 20 µM compound): 1
- plasma membrane permeability / mitochondrial localization (in words) (HeLa cells): poor

Compound: NCCOCCNC(=O)[C@@H]1CCNC(=O)/C=C/C(=O)N2CCC[C@](Cc3ccccc3)(C2)C(=O)N[C@@H](Cc2ccc(-c3ccc(CCC(=O)O)cc3)cc2)C(=O)NCc2ccccc2CC(=O)N1 [Compound B23]
- IC50 (CypB E121S; [2]): 8 nM

Compound: NCCOCCNC(=O)[C@@H]1CCNC(=O)/C=C/C(=O)N2CCC[C@](Cc3ccccc3)(C2)C(=O)N[C@@H](Cc2ccc(-c3ccc(C#CC(=O)O)cc3)cc2)C(=O)NCc2ccccc2CC(=O)N1 [Compound B25]
- IC50 (CypB E121S; [2]): 2.2 nM

Compound: NCCCc1ccc(-c2ccc(C[C@@H]3NC(=O)[C@]4(Cc5ccccc5)CCCN(C4)C(=O)/C=C/C(=O)NCC[C@@H](C(=O)NCCOCCN)NC(=O)Cc4ccccc4CNC3=O)cc2)cc1 [Compound B32]
- potency improvement on CypD K118E/R124A compared to wild-type CypD (CypD K118E/R124A): 100 fold
- preference for CypD K118E/R124A over PPWD1 (CypD K118E/R124A; prolyl-isomerase IC50): at least 13 fold
- selectivity for CypD K118E/R124A over CypA (CypD K118E/R124A; prolyl-isomerase IC50): > 100 fold
- IC50 (CypD K118E/R124A; prolyl-isomerase inhibition): 60 nM

Compound: C[N+]1=C(C=CC=CC=C2N(CCCCCC(=O)NCCNC(=O)C3CCNC(=O)C=CC(=O)N4CCCC(Cc5ccccc5)(C4)C(=O)NC(Cc4ccc(-c5ccc(CC(C(=O)O)C(=O)O)cc5)cc4)C(=O)NCc4ccccc4CC(=O)N3)c3ccccc3C2(C)C)C(C)(C)c2ccccc21 (stereo not shown) [Compound B52-Cy5]
- calcium retention capacity before mPTP opening (in words) [1]: substantially increased calcium retention capacity
- Normalized # Pulses (calcium retention capacity ratio to DMSO) ([1]; 10 µM compound): 4.333 and 3 and 4
- plasma membrane permeability / mitochondrial localization (in words) (HeLa cells): poor and did not observe efficient plasma membrane permeability

Compound: NCCOCCNC(=O)[C@@H]1CCNC(=O)/C=C/C(=O)N2CCC[C@](Cc3ccccc3)(C2)C(=O)N[C@@H](Cc2ccc(-c3ccc(CC(C(=O)O)C(=O)O)cc3)cc2)C(=O)NCc2ccccc2CC(=O)N1 [Compound B52]
- IC50 (CypB E121S; [3]): 8 nM

Compound: C[N+]1=C(C=CC=CC=C2N(CCCCCC(=O)NCCNC(=O)C3CCNC(=O)C=CC(=O)N4CCCC(Cc5ccccc5)(C4)C(=O)NC(Cc4ccc(-c5ccc(C(CC(=O)O)CC(=O)O)cc5)cc4)C(=O)NCc4ccccc4CC(=O)N3)c3ccccc3C2(C)C)C(C)(C)c2ccccc21 (stereo not shown) [Compound B53-Cy5]
- calcium retention capacity before mPTP opening (in words) [1]: substantially increased calcium retention capacity
- Normalized # Pulses (calcium retention capacity ratio to DMSO) ([1]; 20 µM compound): 2.667 and 1.25 and 2
- plasma membrane permeability / mitochondrial localization (in words) (HeLa cells): poor and did not observe efficient plasma membrane permeability

Compound: NCCOCCNC(=O)[C@@H]1CCNC(=O)/C=C/C(=O)N2CCC[C@](Cc3ccccc3)(C2)C(=O)N[C@@H](Cc2ccc(-c3ccc(C(CC(=O)O)CC(=O)O)cc3)cc2)C(=O)NCc2ccccc2CC(=O)N1 [Compound B53]
- IC50 (CypB E121S; [3]): 50 nM

Compound: NC(=O)C1CCNC(=O)C=CC(=O)N2CCCC(Cc3ccccc3)(C2)C(=O)NC(Cc2ccc(-c3ccc(C=O)c(B(O)O)c3)cc2)C(=O)NCc2ccccc2CC(=O)N1 (stereo not shown) [Compound C3A]
- selectivity for CypE over other tested cyclophilins (CypE; FP competition with A26-Fl): ≥ 10 fold
- IC50 (CypE K218A; mutant CypE K218A, read-out: Mutant Cyclophilin Prolyl Isomerase Inhibition IC50 Values, CypE K218A): 2000 nM
- IC50 (CypE K218A; prolyl-isomerase inhibition, read-out: IC50 CypE K218A): 19 ± 3 nM

Compound: NC(=O)[C@@H]1CCNC(=O)/C=C/C(=O)N2CCC[C@](Cc3ccccc3)(C2)C(=O)N[C@@H](Cc2ccc(-c3cccc(B(O)O)c3)cc2)C(=O)NCc2ccccc2CC(=O)N1 [Compound C6A]
- Ki (CypE; FP competition with 0.5 nM A26-Fl, 24 h): 7000 nM
- reduced potency relative to C3A (CypE; FP competition with A26-Fl, CypE): 100 fold
